Measured values: patent publication US20230322805A1, “NOVEL PYRIMIDODIAZEPINE DERIVATIVES OR USES THEREOF” (SPARK BIOPHARMA, INC., priority 2020, published 2023)
Where two headings read alike, the source gives them in different places.

Tests used:
[1] = molecular target: T1, PDIA3 (PDI reductase activity) (Homo sapiens, UniProt P30101); test: PEG maleimide modification assay of PDI oxidation state; assay type: cell-based; conditions: BiFC-tau HEK293 cells, 200 nM TG and 40 μM SB1617 for 3.5 hours, versus thapsigargin alone
T1 construct: endogenous in cells; host or cells: HEK293 BiFC-tau cells (TS-FITGE, CETSA, PEG-maleimide assay)
T1 sequence (P30101 25-505): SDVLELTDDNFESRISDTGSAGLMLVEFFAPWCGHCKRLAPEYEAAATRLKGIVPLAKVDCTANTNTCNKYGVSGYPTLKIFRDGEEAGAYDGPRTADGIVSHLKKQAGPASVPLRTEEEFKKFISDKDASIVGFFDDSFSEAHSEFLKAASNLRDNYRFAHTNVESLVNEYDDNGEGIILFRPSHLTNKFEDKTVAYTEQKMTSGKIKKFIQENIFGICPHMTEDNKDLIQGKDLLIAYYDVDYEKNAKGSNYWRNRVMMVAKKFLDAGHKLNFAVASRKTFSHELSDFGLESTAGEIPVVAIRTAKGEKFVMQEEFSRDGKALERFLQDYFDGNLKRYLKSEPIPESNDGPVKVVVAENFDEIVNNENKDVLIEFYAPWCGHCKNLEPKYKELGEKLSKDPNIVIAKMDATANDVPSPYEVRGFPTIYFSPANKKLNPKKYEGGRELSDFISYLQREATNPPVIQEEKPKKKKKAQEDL
Method: Cysteine modification analysis using PEG maleimide was performed according to the paper (P. Kranz, F. Neumann, A. Wolf, F. Classen, M. Pompsch, T. Ocklenburg, J. Baumann, K. Janke, M. Baumann, K. Goepelt, H. Riffkin, E. Metzen, U. Brockmeier, PDI is an essential redox-sensitive activator of PERK during the unfolded protein response (UPR). Cell Death Dis. 8, e2986 (2017)).
After compound treatment, BiFC-tau HEK293 cells were washed with cold PBS, incubated with 20 mM N-ethylmaleimide (NEM, Sigma Aldrich) in PBS for 20 minutes on ice to alkylate the reduced form of cysteine, and after washing with cold PBS, the cells were lysed in RIPA buffer. For whole cell analysis, the lysate was centrifuged at 200 g for 5 min at 4° C. to remove insoluble material. Protein concentration in the supernatant was analyzed by Pierce BCA Protein Assay Kit. Equal amounts of each lysate were treated with 12 mM tris(2-carboxyethyl)phosphine (TCEP, Sigma Aldrich) for 20 minutes at room temperature to reduce the form of oxidized PDI. Lysates were incubated with 15 mM methoxy polyethylene glycol 5000 maleimide (mPEG-mal5000, Sigma Aldrich) for 1 hour at room temperature. […]
3-2. […] Maleimides with two different molecular weights allow the bands of oxidized and reduced forms of PDI to be readily separated by electrophoresis.

[2] = Pharmacokinetics test in male ICR mice; assay type: in vivo; conditions: CD-1 (ICR), mouse, plasma, 5 mg/kg; for half-life: male
Method: After intravenous or intraperitoneal administration (5 mg/kg, 3.3 mL/kg) of the compound (SB1617, 5% DMSO/[…]) according to the present invention to CD-1 (ICR) male mice (7 weeks old, KOATECH, Korea), blood was collected at designated time points from the orbital venous plexus. The concentration of the compound (SB1617) according to the present invention was examined from the plasma samples using an LC-MS/MS analyzer (Agilent 1200, 4000 Qtrap). Pharmacokinetic parameters were obtained from plasma concentration-time plots using WinNonlin software (Pharsight, USA).
6-1. In order to evaluate the suitability of the compound (SB1617) according to this invention in vivo, pharmacokinetic properties and blood-brain barrier penetration properties were identified using male ICR mice according to the methods described in Examples 1-15 and 1-16.

In the case of CN(Cc1ccc(Cl)cc1)c1ncnc2c1[C@@H]1OC[C@H](CN2)N1S(=O)(=O)c1ccc([N+](=O)[O-])cc1 [Compound 117], the “oxidation state of PDI” value [1] is reported as “significantly converted from the reduced form to the oxidized form”, the AUC(0-inf) ([2]; ip, I.P.) is reported as 5.65 ± 3.32 µg·h/mL and the AUC(0-t) ([2]; ip, I.P.) is reported as 6.07 ± 2.81 µg·h/mL. For the same molecule, the Cmax ([2]; ip, I.P.) was 0.857 ± 0.339 µg/mL, the Tmax ([2]; ip, I.P.) was 1.67 ± 2.02 h and the AUC(0-inf) ([2]; iv, I.V.) was 4.49 ± 0.15 µg·h/mL. For the same molecule, the AUC(0-t) ([2]; iv, I.V.) was 4.19 ± 0.112 µg·h/mL, the clearance ([2]; iv, I.V.) was 1.12 L/h/kg and the Vd ([2]; iv, I.V., read-out: Vss) was 6.27 ± 0.928 L/kg. It also gave a half-life ([2]; ip, I.P., read-out: T1/2 (converted)) of 6.57 ± 0.0563 h, a half-life ([2]; ip, intraperitoneal injection, read-out: half-life (converted)) of roughly 6.6 h and a half-life ([2]; iv, I.V., read-out: T1/2 (converted)) of 5.51 ± 1.86 h.
